Consider one molecule from paper PMC5588548, “Suramin Inhibits Osteoarthritic Cartilage Degradation by Increasing Extracellular Levels of Chondroprotective Tissue Inhibitor of Metalloproteinases 3” (Molecular Pharmacology, 2017).

Values after ≈ are worked out from the molar mass of the structure shown.

As a reminder, the IC50 is the point on the concentration scale where inhibition reaches its midpoint.

Data set [1] relates to HTB94 chondrosarcoma cells. As to the kind of experiment: Cell viability assay (MTS), HTB94 cells. Type of data set: cell-based. The settings on record: suramin 0–250 µg/ml, 72 hours. As for the experimental part: HTB94 chondrosarcoma cells or human OA chondrocytes (10^3 cells per well in 96-well plates) were plated overnight in DMEM with 10% FCS. Cells were washed in serum-free cartilage medium and treated for 48–72 hours with suramin (0–250 µg/ml) or sodium nitroprusside (10 mM) as a control to induce cell death. Cell viability was then assessed using the 3-(4,5-dimethylthiazol-2-yl)-5-(3-carboxymethoxyphenyl)-2-(4-sulfophenyl)-2H-tetrazolium CellTiter Cell Proliferation Assay (Promega) according to the manufacturer’s instructions (mean ± S.D., n = 3).

Data set [2] concerns porcine cartilage explants. The data set is described as follows: Aggrecan release from porcine cartilage explants (DMMB assay, neo-epitope immunoblotting). Type of data set: cell-based. As for the experimental part:
The effects of suramin on cartilage degradation were assessed using porcine or human cartilage explants. Explants were rested for 48 hours after dissection and were washed with serum-free DMEM. […]
Aggrecan degradation was analyzed by quantifying aggrecan fragments released into the conditioned media using the dimethylmethylene blue (DMMB) dye-binding assay ([Farndale et al., 1986]) (mean ± S.D., n = 3) and by immunoblotting with neo-epitope antibodies that recognize ADAMTS-cleaved but not intact aggrecan. For immunoblotting, conditioned media were deglycosylated by adding an equal volume of 200 mM sodium acetate and 50 mM Tris/HCl, pH 6.8, containing chondroitinase and β-endoglycosidase (0.05 U each; 18 hours, 37°C; Sigma-Aldrich). Aggrecan fragments were precipitated by adding five volumes of ice-cold acetone (18 hours, −20°C). After centrifugation (13,000 rpm, 10 minutes, 4°C), pellets were resuspended in SDS sample buffer, separated by electrophoresis on a 6% (v/v) polyacrylamide gel, and blotted onto polyvinylidene fluoride. Membranes were blocked with 5% (m/v) BSA in Tris-buffered saline and incubated with either a rabbit antibody that recognizes the AGEG neo-epitope generated by ADAMTS cleavage of the TAQE^1771∼^1772AGEG bond of aggrecan ([Troeberg et al., 2008]) or a mouse antibody that recognizes the ARGSV neo-epitope generated by ADAMTS cleavage of the NITEGE^373∼^374ARGSV bond ([Hughes et al., 1995]).
On the technique in general: Immunoblotting shows a protein as a band on a membrane.

Turning to `Cc1ccc(C(=O)Nc2ccc(S(=O)(=O)O)c3cc(S(=O)(=O)O)cc(S(=O)(=O)O)c23)cc1NC(=O)c1cccc(NC(=O)Nc2cccc(C(=O)Nc3cc(C(=O)Nc4ccc(S(=O)(=O)O)c5cc(S(=O)(=O)O)cc(S(=O)(=O)O)c45)ccc3C)c2)c1` [suramin], in data set [1], the “cell viability (MTS)” value was “no effect”. The half-maximal inhibitory concentration (IC50) in data set [2] (Sus scrofa, 48 h, porcine cartilage explants, retinoic acid 1 µM, 48 hours, DMMB assay, read-out: IC50 for inhibition of aggrecan release) is 98 ± 9 µg/mL (≈ 75.5 µM). The aggrecan release result in data set [2] (porcine cartilage explants stimulated with IL-1 10 ng/ml or retinoic acid 1 µM, 48 hours, DMMB assay) is reported as “effectively inhibited”; in data set [2] (porcine cartilage, retinoic acid 1 µM, 30 hours, with isotype control antibody 50 µg/ml) it was “significantly inhibited”. For the same molecule, the “aggrecan degradation at ADAMTS-susceptible NITEGE373∼374ARGSV and TAQE1771∼1772AGEG sites (neo-epitope immunoblotting)” value in data set [2] (porcine cartilage explants, retinoic acid 1 µM, 48 hours) is “inhibited”. Moreover, the aggrecan degradation result in data set [2] (porcine cartilage, retinoic acid 1 µM, 30 hours, with anti–TIMP-3 antibody MAB973 50 µg/ml) was “unable to inhibit”.
